Where a SMILES comes first, the peptide text is derived from it. Bridges are numbered along the chain shown (N, C = ends). [ ]: non-standard residue; d: D form. Tic = O=C(O)[C@@H]1Cc2ccccc2CN1; Pen = CC(C)(S)[C@H](N)C(=O)O; Mpa = O=C(O)CCS

Series [1] concerns αV β3 integrin, osteoclasts. The series can be described thus: series of assays of Example II for potency and selectivity (summary, FIG. 2). The text has this:
Peptides of the RGDNTic (SEQ ID NO: 56) pharmacophore group are characterized, in general, as having increased potency, whereas the peptides of the pharmacophore RGDDV (SEQ ID NO: 1) group generally have higher receptor selectivity. […] As used herein, the term "potency" or "potent" means that a peptide of the invention is active at a relatively low concentration in the assays described in Examples II and III. A potent peptide of the invention can be identified, for example, using the assays described in Examples II and III.
Selectivity can be due, for example, to the ability of a peptide of the invention to bind to αV β3 with greater affinity than it binds to other integrins. Thus, in addition to having selectivity, for example, for osteoclast binding to a matrix, a peptide of the invention also can display receptor selectivity and, therefore, more specifically alter receptor-mediated binding to a matrix. As used herein, the term "receptor selectivity" means that a peptide of the invention can bind to one receptor with greater affinity than it can bind to another receptor.

Series [2] in a line: half-life of peptide in serum. The conditions noted are these: in vivo. The text has this: Increased stability of a disulfide bonded peptide of the invention also can be conferred by incorporating a hydrophobic amino acid residue such as phenylalanine at position X1 or X8 or both X1 and X8 in an RGDNTic (SEQ ID NO: 56) or RGDDV (SEQ ID NO: 1) pharmacophore as disclosed herein. The presence of such a residue can stabilize the disulfide bond against enzymatic degradation (see Bauer et al., Life Sciences 31:1133-1140 (1982)). […] In addition, the half-life of a peptide in a subject can be determined, for example, by high performance liquid chromatography (HPLC) of serum samples collected from the subject at various times following administration of the peptide. One skilled in the art would know how to select appropriate elution buffers for HPLC based on the physico-chemical properties of a particular peptide.

The next series deals with T1, αV β3 receptor (Homo sapiens, UniProt P05106+P06756).
T1 construct: The αV β3 receptor was purified from octylglucopyranoside-extracted human placenta; from tissue; host or cells: human placenta
The series can be described thus: αV β3 ELISA (competitive receptor binding). The following applies: receptor ELISAs compared. The protocol:
(§1) Peptide binding to purified human αV β5 and αV β3, which are VnR's, and to α5 β1, which is a FnR, was determined using competitive ELISA assays as described below.
Peptide binding to purified αV β3 receptor was determined by using a competitive ELISA, in which αV β3 receptor was immobilized and the binding of solubilized VN, in the presence of various concentrations of peptide analogue, was detected using a monoclonal mouse IgG anti-VN antibody and a labelled anti-mouse IgG conjugate. A monoclonal anti-VN antibody can be obtained using routine methods (see, for example, Harlow and Lane, Antibodies: A laboratory manual (Cold Spring Harbor Laboratory Press 1988), which is incorporated herein by reference).
96 well microtiter plates were coated overnight at RT with 100 μl/well of αV β3 receptor (0.5 μg/ml in 1×TBS, 4 mM octylglucoside, 1 mM CaCl2). The wells were blocked with 200 μl/well of 1% BSA in 1×TBS, 1 mM CaCl2 for at least 30 min. The plates were washed 2× with 1×TBS, 1 mM CaCl2. 50 μl peptide in 1×TBS, 1 mM CaCl2, 0.05% "TWEEN 20" polyoxyethylenesorbitan monolaurate was added in 10-fold serial dilutions. 50 μl of Vn in the same buffer then was added to each well.
The plates were incubated for 3 hr at RT, then washed 3× with 1×TBS, 0.05% "TWEEN 20" polyoxyethylenesorbitan monolaurate. […] The plates were read at 490 nm and the data analyzed by four parameter fit. […]
(In general: ELISA stands for enzyme-linked immunosorbent assay.)

The subject of the next series is osteoclasts. The following applies: cited from earlier work.
Another series deals with Swiss-Webster mice. The series can be described thus: PTH-induced hypercalcemia assay. The class given is in vivo. The following applies: peptide infused 4 hr at various doses, 0.2 mg PTH/kg i.v., FIG. 9. The text has this: Parathyroid hormone (PTH) activates osteoclasts, which are involved in bone resorption. Associated with the increased osteoclast activity is an increase in serum calcium. The PTH-induced hypercalcemia assay measures the level of serum calcium, which is an indication of bone resorption in a subject (Fischer et al., Endocrinology 132:1411-1413 (1993), which is incorporated herein by reference).
Swiss-Webster mice, which had been parathyroidectomized two weeks prior to beginning the assay, were obtained from Taconic Lab Animals and Services (Germantown N.Y.). Femoral vein catheters (PE-50 fused with PE10 polyethylene tubing; Becton Dickinson; Parsippany, N.J.) were installed in the mice, flushed and locked with heparinized saline (1:10), sutured to adjacent muscle and internalized within the inguinal space of the incision before closing the incision with wound clips. […]
The experiment was initiated by feeding the mice a calcium-deficient diet overnight, then injecting the mice the following morning with a bolus of 0.2 mg PTH/kg (hPTH 1-34; Bachem; Torrance Calif.), intravenously. […] Various doses of a peptide or vehicle were infused into an animal for 4 hr, then ionized serum calcium again was measured. […] Serum calcium measurements were expressed as the difference between the value 30 min before the PTH pulse and 4 hr after peptide infusion was started. […]

For another series, the target named is T2, α5 β1 (FnR) (Homo sapiens, UniProt P05556+P08648).
T2 construct: Fibronectin receptor (FnR) was purified from 100 mM octyl-glucopyranoside-extracted human placenta; from tissue; host or cells: human placenta
Briefly: α5 β1 ELISA (competitive receptor binding). The conditions noted are these: receptor ELISAs compared. The protocol:
as §1
Peptide binding to purified human α5 β1 (FnR) also was determined using a competitive ELISA. In these assays, Fn was immobilized to the wells and the binding of solubilized FnR in the presence of various concentrations of a peptide analogue was determined using a mouse monoclonal antibody to human β1 (clone P4C10; Gibco) and specific binding was visualized using a second antibody.
Microtiter wells were coated at RT by adding 100 μl of 2 μg/ml human Fn in TBS and incubating the plates overnight at 4° C. Following incubation, the plates were washed 3× with TBS/"TWEEN-20". RGD peptides were diluted in TBS containing 20 mM OG and 2 mM MnCl2 and 50 μl was added to wells at 10-fold serial dilutions. FnR was diluted in the same buffer and 50 μl was added to each well.
The plates were incubated for 3 hr at RT and washed with 300 μl TBS/"TWEEN-20". Bound receptor was incubated with 100 μl of the monoclonal anti-β1 antibody for 2 hr, then washed 3× with TBS/"TWEEN-20". […] The amount of bound second antibody was determined as described above.
The IC50 values for various RGD peptides were calculated by determining the concentration of a peptide that inhibited binding of Vn to αV β5 or αV β3 or of Fn to α5 β1 by 50%. […]

Turning to `CC(=O)N[C@H]1CSSC[C@@H](C(N)=O)NC(=O)[C@@H]2Cc3ccccc3CN2C(=O)[C@H](CO)NC(=O)[C@H](CC(=O)O)NC(=O)CNC(=O)[C@H](CCCNC(=N)N)NC1=O` [compound 812, Ac-CRGDS(Tic)Cs-NH2] (Ac-CRGDS[Tic]C-NH2; disulfide 1-7), the “potency (summary classification)” value in series [1] is “particularly potent”. Moreover, the “activity of peptides with minimally essential elements” value in series [1] (FIG. 2) is given as “demonstrate activity”.

Consider `CC(=O)N[C@@H](Cc1ccccc1)C(=O)N[C@H]1CSSC[C@@H](C(N)=O)NC(=O)[C@H](Cc2ccccc2)NC(=O)[C@H]([C@@H](C)O)NC(=O)[C@H](CC(=O)O)NC(=O)CNC(=O)[C@H](CCCNC(=N)N)NC1=O` [peptide 220] (Ac-FCRGDTFC-NH2; disulfide 2-8), for which the half-life in serum entry in series [2] is listed as “relatively long”.

For `CC(=O)N[C@@H]1C(=O)N[C@@H](Cc2ccccc2)C(=O)N[C@@H](C)C(=O)N[C@@H](CCCNC(=N)N)C(=O)NCC(=O)N[C@@H](CC(=O)O)C(=O)N[C@@H](CC(N)=O)C(=O)N2CCC[C@H]2C(=O)N[C@H](C(N)=O)CSSC1(C)C` [peptide 214] (Ac-[Pen]FARGDNPC-NH2; disulfide 1-9), the “relative affinity for αV β3, α5 β1 and αV β5” value at αV β3 receptor is “higher affinity for αV β3 and α5 β1 than for αV β5”. For the same compound, in series [1], the “potency (summary classification)” value is “particularly potent”.

`C[C@@H]1NC(=O)[C@H](C)NC(=O)[C@@H](NC(=O)CN)C(C)(C)SSC[C@@H](C(N)=O)NC(=O)[C@H]([C@@H](C)O)NC(=O)[C@H](CC(=O)O)NC(=O)[C@H](CC(=O)O)NC(=O)CNC(=O)[C@H](CCCNC(=N)N)NC1=O` [compound 186] (H-G[Pen]AARGDDTC-NH2; disulfide 2-10): the “receptor selectivity (summary classification)” value (“receptor selectivity” for short) in series [1] is reported as “particularly receptor selective”.

Regarding `CC(=O)N[C@H]1CSSC(C)(C)[C@@H](C(N)=O)NC(=O)[C@@H]2CCCN2C(=O)[C@H](CC(N)=O)NC(=O)[C@H](CC(=O)O)NC(=O)CNC(=O)[C@H](CCCNC(=N)N)NC1=O` [compound 228] (Ac-CRGDNP[Pen]-NH2; disulfide 1-7), in series [1], the “receptor selectivity” value is reported as “particularly receptor selective”.

As for `CC(C)[C@@H]1NC(=O)[C@H](CC(=O)O)NC(=O)[C@H](CC(=O)O)NC(=O)CNC(=O)[C@H](CCCNC(=N)N)NC(=O)[C@H](C)NC(=O)[C@H](CCCNC(=N)N)NC(=O)[C@@H](NC(=O)CN)C(C)(C)SSC[C@@H](C(=O)N[C@@H](C)C(=O)O)NC1=O` [compound 138] (H-G[Pen]RARGDDVCA-OH; disulfide 2-10), in series [1], the “potency and selectivity together (summary classification)” value is “both potent and selective”; the “receptor selectivity” value is “particularly receptor selective”.

Consider Echistatin, for which, in the series with osteoclasts, the binding to osteoclasts entry is “nonselective”.

Regarding `CC(C)[C@@H]1NC(=O)[C@H](CC(=O)O)NC(=O)[C@H](CC(=O)O)NC(=O)CNC(=O)[C@H](CCCNC(=N)N)NC(=O)CCSSC[C@@H](C(N)=O)NC1=O` [compound 191] ([Mpa]RGDDVC-NH2; disulfide 1-7), in the series with Swiss-Webster mice, the “effect on PTH-induced rise in serum ionized calcium” value is listed as “decreased the PTH-induced rise in serum ionized calcium in a dose responsive manner”.

Regarding `C[C@H](NC(=O)[C@@H]1CSSC(C)(C)[C@H](NC(=O)CN)C(=O)N[C@@H](C)C(=O)N[C@@H](C)C(=O)N[C@@H](CCCNC(=N)N)C(=O)NCC(=O)N[C@@H](CC(=O)O)C(=O)N[C@@H](CC(N)=O)C(=O)N2CCC[C@H]2C(=O)N1)C(=O)O` [compound 310] (H-G[Pen]AARGDNPCA-OH; disulfide 2-10), at α5 β1 (FnR), the “selectivity toward α5 β1 versus αV β5” value is “more selective toward α5 β1 than toward αV β5”.

Values taken from patent US5770565A, “Peptides for reducing or inhibiting bone resorption” (priority 1994, dated 1998).
